The source of these data is ChEMBL document CHEMBL3046657, “Quantum chemical QSAR study of flavones and their radical-scavenging activity” (Med Chem Res, 2007).

The inhibition is the drop in the measured response relative to a control, in per cent.

The subject of the assay is Radical scavenging activity. The assay can be described thus: Antioxidant activity assessed as inhibition of DPPH radical […] at 33 uM after 5 min by spectrophotometric analysis. Format: functional. For orientation: DPPH is a stable violet radical that fades when it is reduced.
With `O=c1c(O)c(-c2cc(O)c(O)c(O)c2)oc2cc(O)cc(O)c12`, the inhibition stood at 72.8%. Next, `O=c1c(O)c(-c2ccccc2)oc2cc(O)cc(O)c12`: 91.8%; `O=C1CC(c2ccccc2)Oc2ccccc21` (stereo not given): 2.6%.

Take `O=c1c(O)c(-c2ccc(O)cc2)oc2cc(O)cc(O)c12`: the inhibition came to 93.5%. Turning to `O=c1cc(-c2ccccc2)oc2cc(O)cc(O)c12`, the inhibition is 1.1%. For `O=C1C[C@@H](c2ccc(O)cc2)Oc2cc(O)cc(O)c21`, the inhibition was 6.3%. Consider `O=C1c2c(O)cc(O)cc2O[C@H](c2ccc(O)c(O)c2)[C@H]1O`, for which the inhibition amounted to 94.8%. The value for `COc1cc(-c2oc3cc(O)cc(O)c3c(=O)c2O)cc(O)c1O` was 84.6%. Consider `O=c1cc(-c2ccc(O)cc2)oc2cc(O)cc(O)c12`, for which the inhibition was 0.7%.

`O=C1c2ccc(O)cc2O[C@H](c2ccc(O)c(O)c2)[C@H]1O`: the inhibition amounted to 91.9%. For `O=c1c(O)c(-c2cc(O)c(O)c(O)c2)oc2cc(O)ccc12`, the inhibition was determined as 82.3%. As to `COc1cccc2c(=O)cc(-c3ccccc3)oc12`, the inhibition amounted to 0.7%. `O=c1cc(-c2ccccc2)oc2cc(O)ccc12`: the inhibition is 2.8%. Next, `COc1ccc([C@@H]2CC(=O)c3c(O)cc(O)cc3O2)cc1O`: 30%; `O=c1cc(-c2ccccc2)oc2ccccc12`: 1.5%. `O=c1c(O)c(-c2ccc(O)cc2O)oc2cc(O)cc(O)c12`: the inhibition came out at 96.5%. `O=c1c(O)c(-c2ccc(O)c(O)c2)oc2cc(O)ccc12`: the inhibition was 79%. The value for `O=c1c(O)c(-c2ccc(O)c(O)c2)oc2cc(O)cc(O)c12` was 89.8%; that for `O=c1c(O)c(-c2ccccc2)oc2ccccc12` was 66%. For `O=c1cc(-c2ccccc2)oc2cccc(O)c12`, the inhibition was determined as 0.6%.
